Measured values taken from ChEMBL document CHEMBL1201862, “PubChem BioAssay data set” (2004).
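Step 1: Grow cells in 96-well plates. Step 2: Expose to compound for 48 hours at 5 concentrations. Step 3: Interpolate endpoints linearly; if unreached, use highest concentration. At the GI50, growth is halved.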 Calls of active or inactive are those of the source. Rule as the data show it: active = GI50 up to about 1.1 µM and inactive = higher.

Experiments:
Experiment in all cases: growth of human tumour cells (NCI), 48 h
TK-10 = test system: TK-10
NCI-H23 = test system: NCI-H23
NCI-H522 = test system: NCI-H522
IGROV-1 = test system: IGROV-1
OVCAR-4 = test system: OVCAR-4
K562 = test system: K562
M19-MEL = test system: M19-MEL
SNB-19 = test system: SNB-19
OVCAR-8 = test system: OVCAR-8
RPMI-8226 = test system: RPMI-8226
EKVX = test system: EKVX
786-0 = test system: 786-0
SNB-75 = test system: SNB-75
CCRF-CEM = test system: CCRF-CEM
KM12 = test system: KM12
SF-295 = test system: SF-295
MDA-MB-435 = test system: MDA-MB-435
RXF 393 = test system: RXF 393
MDA-MB-231 = test system: MDA-MB-231
NCI/ADR-RES = test system: NCI/ADR-RES

SMILES	GI50 (TK-10)	GI50 (NCI-H23)	GI50 (NCI-H522)	GI50 (IGROV-1)	GI50 (OVCAR-4)	GI50 (K562)	GI50 (M19-MEL)	GI50 (SNB-19)	GI50 (OVCAR-8)	GI50 (RPMI-8226)	GI50 (EKVX)	GI50 (786-0)	GI50 (SNB-75)	GI50 (CCRF-CEM)	GI50 (KM12)	GI50 (SF-295)	GI50 (MDA-MB-435)	GI50 (RXF 393)	GI50 (MDA-MB-231)	GI50 (NCI/ADR-RES)
O=C(O)COc1ccccc1C(=O)Nc1ccccc1	> 100 µM (inactive)	> 100 µM (inactive)	> 100 µM (inactive)	> 100 µM (inactive)	> 100 µM (inactive)	> 100 µM (inactive)	> 100 µM (inactive)	> 100 µM (inactive)	> 100 µM (inactive)	> 100 µM (inactive)	> 100 µM (inactive)	> 100 µM (inactive)	77.8 µM (inactive)	> 100 µM (inactive)	> 100 µM (inactive)	> 100 µM (inactive)	–	–	–	–
C=C1CCC23CC(CC[C@@H]2[C@@]12C[C@@H](c1ccoc1)OC2=O)OC3=O (stereo partly drawn)	> 100 µM (inactive)	> 100 µM (inactive)	> 100 µM (inactive)	> 100 µM (inactive)	> 100 µM (inactive)	> 100 µM (inactive)	> 100 µM (inactive)	> 100 µM (inactive)	> 100 µM (inactive)	> 100 µM (inactive)	> 100 µM (inactive)	> 100 µM (inactive)	–	63 µM (inactive)	> 100 µM (inactive)	> 100 µM (inactive)	–	–	–	–
CCOC(=O)C1=C(C)N(NC(N)=O)C(C)(O)C12CCOC2=O (stereo not drawn)	–	–	> 100 µM (inactive)	> 100 µM (inactive)	> 100 µM (inactive)	> 100 µM (inactive)	> 100 µM (inactive)	> 100 µM (inactive)	> 100 µM (inactive)	> 100 µM (inactive)	> 100 µM (inactive)	> 100 µM (inactive)	> 100 µM (inactive)	–	> 100 µM (inactive)	> 100 µM (inactive)	–	–	–	–
N#CC(C#N)=Cc1ccc(C(O)P(=O)(O)O)cc1 (stereo not drawn)	> 100 µM (inactive)	> 100 µM (inactive)	56.6 µM (inactive)	> 100 µM (inactive)	> 100 µM (inactive)	69.2 µM (inactive)	> 100 µM (inactive)	> 100 µM (inactive)	> 100 µM (inactive)	> 100 µM (inactive)	> 100 µM (inactive)	> 100 µM (inactive)	–	71.8 µM (inactive)	> 100 µM (inactive)	> 100 µM (inactive)	–	–	–	–
O=C(NCCCNCCN1C(=O)c2cccc3cc([N+](=O)[O-])cc(c23)C1=O)c1cc(-c2ccccc2)nc2ccccc12	7.74 µM (inactive)	3.02 µM (inactive)	1.62 µM (inactive)	2.54 µM (inactive)	3.2 µM (inactive)	0.836 µM (active)	–	3.72 µM (inactive)	0.933 µM (active)	1.13 µM (inactive)	7.52 µM (inactive)	1.45 µM (inactive)	3.62 µM (inactive)	0.966 µM (active)	4.4 µM (inactive)	3.08 µM (inactive)	1.46 µM (inactive)	1.49 µM (inactive)	3.01 µM (inactive)	4.22 µM (inactive)
COn1cc(CO)c2ccccc21	5.96 µM (inactive)	> 100 µM (inactive)	21.5 µM (inactive)	22 µM (inactive)	34 µM (inactive)	31.2 µM (inactive)	–	> 100 µM (inactive)	> 100 µM (inactive)	66.5 µM (inactive)	> 83.2 µM (inactive)	> 86.9 µM (inactive)	> 100 µM (inactive)	34.7 µM (inactive)	> 100 µM (inactive)	> 100 µM (inactive)	> 100 µM (inactive)	21.5 µM (inactive)	> 100 µM (inactive)	> 90.8 µM (inactive)
N#Cc1c(-c2ccccc2)cc(-c2ccccc2)n(C2OCC(O)C(O)C2O)c1=S (stereo not drawn)	27.9 µM (inactive)	21.3 µM (inactive)	18.2 µM (inactive)	17.7 µM (inactive)	24.5 µM (inactive)	39 µM (inactive)	–	26.6 µM (inactive)	20.8 µM (inactive)	10.4 µM (inactive)	36.2 µM (inactive)	25.7 µM (inactive)	24.9 µM (inactive)	16.4 µM (inactive)	12.9 µM (inactive)	18.5 µM (inactive)	19 µM (inactive)	18.4 µM (inactive)	0.946 µM (active)	32.4 µM (inactive)
O=C(CC(=O)n1nc(-c2ccccc2)c(/N=N/c2ccc(Cl)cc2)c1-c1ccccc1)Nc1ccc(Cl)cc1	> 61.1 µM (inactive)	> 100 µM (inactive)	> 100 µM (inactive)	> 100 µM (inactive)	> 100 µM (inactive)	> 41.7 µM (inactive)	> 47.8 µM (inactive)	> 100 µM (inactive)	63.4 µM (inactive)	> 46.3 µM (inactive)	> 100 µM (inactive)	> 43.3 µM (inactive)	> 50.5 µM (inactive)	> 43.5 µM (inactive)	48.6 µM (inactive)	> 100 µM (inactive)	–	–	–	–
CCC1(N)C(=O)OCc2c1cc1n(c2=O)Cc2cc3ccccc3nc2-1 (stereo not drawn)	> 74.3 µM (inactive)	4.56 µM (inactive)	9.51 µM (inactive)	6.56 µM (inactive)	50 µM (inactive)	18.9 µM (inactive)	–	7.67 µM (inactive)	7.71 µM (inactive)	32.7 µM (inactive)	51.4 µM (inactive)	3.74 µM (inactive)	8.36 µM (inactive)	0.859 µM (active)	46.1 µM (inactive)	5.31 µM (inactive)	54.6 µM (inactive)	13.4 µM (inactive)	77.4 µM (inactive)	5.02 µM (inactive)
C/C(=N\N=C(/S)N(C)C)c1cccnn1	4.05 µM (inactive)	1.13 µM (inactive)	0.74 µM (active)	0.689 µM (active)	0.608 µM (active)	0.794 µM (active)	–	1.46 µM (inactive)	0.526 µM (active)	0.466 µM (active)	0.551 µM (active)	0.486 µM (active)	2.03 µM (inactive)	0.275 µM (active)	2.48 µM (inactive)	0.879 µM (active)	1.42 µM (inactive)	0.488 µM (active)	0.745 µM (active)	0.521 µM (active)
Cn1c(=O)c2c(nc3sc4c(n32)C(=O)c2c(O)ccc(O)c2C4=O)n(C)c1=O	5.97 µM (inactive)	7.55 µM (inactive)	0.137 µM (active)	8.02 µM (inactive)	1.46 µM (inactive)	0.64 µM (active)	–	> 53.1 µM (inactive)	2.34 µM (inactive)	0.298 µM (active)	13 µM (inactive)	1.75 µM (inactive)	2.99 µM (inactive)	0.305 µM (active)	2.77 µM (inactive)	31.2 µM (inactive)	4.78 µM (inactive)	2.68 µM (inactive)	2.28 µM (inactive)	2.74 µM (inactive)
Cc1ccc(F)cc1NC(=O)O/N=C(\Cl)C(C)C	3.71 µM (inactive)	17.9 µM (inactive)	0.791 µM (active)	17.2 µM (inactive)	16 µM (inactive)	1.97 µM (inactive)	–	35.5 µM (inactive)	17.5 µM (inactive)	2.17 µM (inactive)	7.19 µM (inactive)	5.69 µM (inactive)	14.8 µM (inactive)	1.9 µM (inactive)	16.9 µM (inactive)	28.5 µM (inactive)	13 µM (inactive)	3.05 µM (inactive)	14.1 µM (inactive)	10.6 µM (inactive)
